Key:
[1] = test system: serum amyloid P component (SAP); assay: Serum amyloid P component (SAP) in sera of mice exposed to sensitizers; format: in vivo; conditions: sera of mice exposed to sensitizer
[2] = test system: anti-nuclear antibodies (ANA); assay: Anti-nuclear antibodies (ANA) in sera of mice topically exposed to haptens; format: in vivo; conditions: topical exposure
keratins = assay: Protein cross-linking by bidentate haptens (SDS gels of blebs); format: cell-based, human; conditions: bidentate hapten
Source text: In SDS-PAGE experiments it was shown that thiol-, amine-, and arginine-reactive sensitizers give rise to blebs that contain the same proteins. […] It was also shown that the sensitizing compounds also modify other proteins and that these proteins are released in blebs, as visualized by fluorescent bands on SDS-gels.

human skin excerpts = assay: Labeling of human skin excerpts by caged haptens
Source text: The first step is that the molecules come into contact with the skin (the stratum corneum). Many of the reactive molecules react in the stratum corneum, something that can be seen in experiments with human skin excerpts and the caged (mBBr and dBBr) haptens. However, a significant proportion of the molecules penetrate further down to the suprabasal layers of the epidermis but also the follicular pathway is of importance for bringing xenobiotics into the skin. It is likely that the penetration is due both to the acidic pH of the stratum corneum (the molecules react more slowly when the pH is low), but also because many of the available groups have reacted. In the suprabasal layers, the haptens have a hard time penetrating the cells, as the cornification of the cells creates a thick, relatively impermeable envelope around the suprabasal cells. Consequently, the haptens penetrate down to the basal layer. Here, the cell membrane is much thinner and more fluidic and the molecules can thus enter the basal cells.

Cc1c(CBr)n2c(CBr)c(C)c(=O)n2c1=O [dBBr, dibromobimane]
Level of serum amyloid P component (SAP) [1]: increased levels | Level of anti-nuclear antibodies (ANA) in sera [2]: increased levels | Cross-links between keratins (keratins): cause cross-links | Labeling of cells in the basal layer (human skin excerpts): cells in the basal layer are labeled

Source: patent publication US20110245104A1, “Method for screening the sensitizing properties of chemical compounds” (priority 2010, published 2011)
